Converted amounts (≈) assume the structure as drawn.
Legend:
[1] = tested on: Enterobacter cloacae; test: In vitro antibacterial activity against Enterobacter cloacae 1321E by agar dilution method using Mueller-Hinton; assay type: functional
[2] = tested on: Escherichia coli; test: In vitro antibacterial activity against Escherichia coli 078 by agar dilution method using Mueller-Hinton; assay type: functional
[3] = tested on: Escherichia coli; test: In vitro antibacterial activity against Escherichia coli 1507E by agar dilution method using Mueller-Hinton; assay type: functional
[4] = tested on: Klebsiella aerogenes; test: In vitro antibacterial activity against Klebsiella aerogenes 1522E by agar dilution method using Mueller-Hinton; assay type: functional
[5] = tested on: Pseudomonas aeruginosa; test: In vitro antibacterial activity against Pseudomonas aeruginosa 1771M by agar dilution method using Mueller-Hinton; assay type: functional
[6] = tested on: Pseudomonas aeruginosa; test: In vitro antibacterial activity against Pseudomonas aeruginosa 9027 by agar dilution method using Mueller-Hinton; assay type: functional
[7] = tested on: Pseudomonas aeruginosa; test: In vitro antibacterial activity against Pseudomonas aeruginosa 1592E by agar dilution method using Mueller-Hinton; assay type: functional
[8] = tested on: Salmonella typhimurium; test: In vitro antibacterial activity against Salmonella Typhimurium by agar dilution method using Mueller-Hinton; assay type: functional, Salmonella enterica subsp. enterica serovar Typhimurium; conditions: Salmonella enterica
[9] = tested on: Staphylococcus aureus; test: In vitro antibacterial activity against Staphylococcus aureus SG 285 by agar dilution method using Mueller-Hinton; assay type: functional
[10] = tested on: Staphylococcus aureus; test: In vitro antibacterial activity against Staphylococcus aureus SG 503 by agar dilution method using Mueller-Hinton; assay type: functional
[11] = tested on: Staphylococcus aureus; test: In vitro antibacterial activity against Staphylococcus aureus SG 511 by agar dilution method using Mueller-Hinton; assay type: functional
[12] = tested on: Streptococcus pyogenes; test: In vitro antibacterial activity against Streptococcus pyogenes 308A by agar dilution method using Mueller-Hinton; assay type: functional
[13] = The area under concentration-time curve(AUC) was determined at 20 mg/kg of compound dose, administered intravenously in rat; assay type: ADME, organism-based; set-up: dose 20 mg/kg, route intravenous; conditions: in vivo, iv
[14] = Pharmacokinetic studies were carried out to determine the clearance after administration at 20 mg/kg intravenously in rat; assay type: ADME, organism-based; set-up: dose 20 mg/kg, route intravenous; conditions: in vivo, iv

Row | Compound | MIC [1] [µg/mL] | MIC [2] [µg/mL] | MIC [3] [µg/mL] | MIC [4] [µg/mL] | MIC [5] [µg/mL] | MIC [6] [µg/mL] | MIC [7] [µg/mL] | MIC [8] [µg/mL] | MIC [9] [µg/mL] | MIC [10] [µg/mL] | MIC [11] [µg/mL] | MIC [12] [µg/mL] | AUC [13] [ng·h/mL] | clearance [14] [mL/min/kg]
1 | C[C@@H](O)[C@H]1C(=O)N2C(C(=O)O)=C(S[C@@H]3CN[C@H](CSc4nnnn4CCS(=O)(=O)N(C)C)C3)[C@H](C)[C@H]12 | 0.025 (≈ 0.0445 µM) | 0.025 (≈ 0.0445 µM) | 0.025 (≈ 0.0445 µM) | 0.049 (≈ 0.0872 µM) | 0.391 (≈ 0.696 µM) | 6.25 (≈ 11.1 µM) | 12.5 (≈ 22.3 µM) | 0.049 (≈ 0.0872 µM) | 0.098 (≈ 0.174 µM) | 0.025 (≈ 0.0445 µM) | 0.098 (≈ 0.174 µM) | 0.007 (≈ 0.0125 µM) | – | –
2 | C[C@@H](O)[C@H]1C(=O)N2C(C(=O)O)=C(S[C@@H]3CN[C@H](CSc4nnnn4CCO)C3)[C@H](C)[C@H]12 | 0.049 (≈ 0.104 µM) | 0.025 (≈ 0.0531 µM) | 0.025 (≈ 0.0531 µM) | 0.049 (≈ 0.104 µM) | 0.195 (≈ 0.414 µM) | 1.56 (≈ 3.32 µM) | 1.56 (≈ 3.32 µM) | 0.049 (≈ 0.104 µM) | 0.098 (≈ 0.208 µM) | 0.049 (≈ 0.104 µM) | 0.098 (≈ 0.208 µM) | 0.007 (≈ 0.0149 µM) | – | –
3 | C[C@@H](O)[C@H]1C(=O)N2C(C(=O)O)=C(S[C@@H]3CN[C@H](CSc4nnnn4CCC(N)=O)C3)[C@H](C)[C@H]12 | 0.025 (≈ 0.0502 µM) | 0.025 (≈ 0.0502 µM) | 0.025 (≈ 0.0502 µM) | 0.049 (≈ 0.0985 µM) | 0.195 (≈ 0.392 µM) | 1.56 (≈ 3.14 µM) | 0.781 (≈ 1.57 µM) | 0.049 (≈ 0.0985 µM) | 0.098 (≈ 0.197 µM) | 0.025 (≈ 0.0502 µM) | 0.098 (≈ 0.197 µM) | 0.013 (≈ 0.0261 µM) | – | –
4 | C[C@@H](O)[C@H]1C(=O)N2C(C(=O)O)=C(S[C@@H]3CN[C@H](CSc4nnnn4-c4ccccc4)C3)[C@H](C)[C@H]12 | 0.098 (≈ 0.195 µM) | 0.195 (≈ 0.388 µM) | 0.391 (≈ 0.778 µM) | 0.391 (≈ 0.778 µM) | 3.12 (≈ 6.22 µM) | 50 (≈ 99.5 µM) | 50 (≈ 99.5 µM) | 0.098 (≈ 0.195 µM) | 0.049 (≈ 0.0975 µM) | 0.025 (≈ 0.0497 µM) | 0.049 (≈ 0.0975 µM) | 0.007 (≈ 0.0139 µM) | – | –
5 | CNC(=O)CCn1nnnc1SC[C@@H]1C[C@H](SC2=C(C(=O)O)N3C(=O)[C@H]([C@@H](C)O)[C@H]3[C@H]2C)CN1 | 0.025 (≈ 0.0489 µM) | 0.025 (≈ 0.0489 µM) | 0.025 (≈ 0.0489 µM) | 0.049 (≈ 0.0958 µM) | 0.391 (≈ 0.764 µM) | 1.56 (≈ 3.05 µM) | 1.56 (≈ 3.05 µM) | 0.049 (≈ 0.0958 µM) | 0.098 (≈ 0.192 µM) | 0.049 (≈ 0.0958 µM) | 0.098 (≈ 0.192 µM) | 0.007 (≈ 0.0137 µM) | – | –
6 | C[C@@H](O)[C@H]1C(=O)N2C(C(=O)O)=C(S[C@@H]3CN[C@H](CSc4nnnn4C)C3)[C@H](C)[C@H]12 | 0.025 (≈ 0.0567 µM) | 0.025 (≈ 0.0567 µM) | 0.025 (≈ 0.0567 µM) | 0.025 (≈ 0.0567 µM) | 0.195 (≈ 0.443 µM) | 0.781 (≈ 1.77 µM) | 0.781 (≈ 1.77 µM) | 0.025 (≈ 0.0567 µM) | 0.049 (≈ 0.111 µM) | 0.025 (≈ 0.0567 µM) | 0.025 (≈ 0.0567 µM) | 0.004 (≈ 0.00908 µM) | 15900 | 21.8
7 | C[C@@H](O)[C@H]1C(=O)N2C(C(=O)O)=C(S[C@@H]3CN[C@H](CSc4nnnn4-c4ccncc4)C3)[C@H](C)[C@H]12 | 0.098 (≈ 0.195 µM) | 0.098 (≈ 0.195 µM) | 0.195 (≈ 0.387 µM) | 0.195 (≈ 0.387 µM) | 0.781 (≈ 1.55 µM) | 50 (≈ 99.3 µM) | 50 (≈ 99.3 µM) | 0.049 (≈ 0.0973 µM) | 0.098 (≈ 0.195 µM) | 0.049 (≈ 0.0973 µM) | 0.049 (≈ 0.0973 µM) | 0.007 (≈ 0.0139 µM) | – | –
8 | CNS(=O)(=O)CCn1nnnc1SC[C@@H]1C[C@H](SC2=C(C(=O)O)N3C(=O)[C@H]([C@@H](C)O)[C@H]3[C@H]2C)CN1 | 0.025 (≈ 0.0456 µM) | 0.025 (≈ 0.0456 µM) | 0.025 (≈ 0.0456 µM) | 0.049 (≈ 0.0895 µM) | 0.391 (≈ 0.714 µM) | 3.12 (≈ 5.71 µM) | 3.12 (≈ 5.71 µM) | 0.049 (≈ 0.0895 µM) | 0.098 (≈ 0.179 µM) | 0.025 (≈ 0.0456 µM) | 0.098 (≈ 0.179 µM) | 0.007 (≈ 0.0128 µM) | – | –
9 | C[C@@H](O)[C@H]1C(=O)N2C(C(=O)O)=C(S[C@@H]3CN[C@H](CSc4nnnn4CCN(C)C)C3)[C@H](C)[C@H]12 | 0.049 (≈ 0.0985 µM) | 0.025 (≈ 0.0502 µM) | 0.049 (≈ 0.0985 µM) | 0.098 (≈ 0.197 µM) | 0.195 (≈ 0.392 µM) | 3.12 (≈ 6.28 µM) | 3.12 (≈ 6.28 µM) | 0.098 (≈ 0.197 µM) | 0.098 (≈ 0.197 µM) | 0.025 (≈ 0.0502 µM) | 0.049 (≈ 0.0985 µM) | 0.013 (≈ 0.0261 µM) | – | –
10 | C[C@@H](O)[C@H]1C(=O)N2C(C(=O)O)=C(S[C@@H]3CN[C@H](CSc4nnnn4CC(=O)N(C)C)C3)[C@H](C)[C@H]12 | 0.049 (≈ 0.0958 µM) | 0.025 (≈ 0.0489 µM) | 0.049 (≈ 0.0958 µM) | 0.098 (≈ 0.192 µM) | 0.391 (≈ 0.764 µM) | 3.12 (≈ 6.11 µM) | 3.12 (≈ 6.11 µM) | 0.049 (≈ 0.0958 µM) | 0.195 (≈ 0.381 µM) | 0.049 (≈ 0.0958 µM) | 0.195 (≈ 0.381 µM) | 0.013 (≈ 0.0254 µM) | – | –
11 | C[C@@H](O)[C@H]1C(=O)N2C(C(=O)[O-])=C(S[C@@H]3CN[C@H](CSc4nnnn4CC[N+](C)(C)C)C3)[C@H](C)[C@H]12 | 0.098 (≈ 0.192 µM) | 0.049 (≈ 0.0958 µM) | 0.098 (≈ 0.192 µM) | 0.195 (≈ 0.381 µM) | 0.195 (≈ 0.381 µM) | 0.781 (≈ 1.53 µM) | 0.781 (≈ 1.53 µM) | 0.195 (≈ 0.381 µM) | 0.195 (≈ 0.381 µM) | 0.049 (≈ 0.0958 µM) | 0.098 (≈ 0.192 µM) | 0.025 (≈ 0.0489 µM) | – | –
12 | CNC(=O)Cn1nnnc1SC[C@@H]1C[C@H](SC2=C(C(=O)O)N3C(=O)[C@H]([C@@H](C)O)[C@H]3[C@H]2C)CN1 | 0.049 (≈ 0.0985 µM) | 0.025 (≈ 0.0502 µM) | 0.049 (≈ 0.0985 µM) | 0.098 (≈ 0.197 µM) | 0.391 (≈ 0.786 µM) | 1.56 (≈ 3.14 µM) | 1.56 (≈ 3.14 µM) | 0.098 (≈ 0.197 µM) | 0.195 (≈ 0.392 µM) | 0.098 (≈ 0.197 µM) | 0.195 (≈ 0.392 µM) | 0.013 (≈ 0.0261 µM) | – | –
13 | C[C@@H](O)[C@H]1C(=O)N2C(C(=O)O)=C(SCCNC=N)C[C@H]12 [IMIPENEM ANHYDROUS] | 0.195 (≈ 0.651 µM) | 0.098 (≈ 0.327 µM) | 0.195 (≈ 0.651 µM) | 0.391 (≈ 1.31 µM) | 0.195 (≈ 0.651 µM) | 0.781 (≈ 2.61 µM) | 1.56 (≈ 5.22 µM) | 0.781 (≈ 2.61 µM) | 0.025 (≈ 0.0835 µM) | 0.013 (≈ 0.0434 µM) | 0.025 (≈ 0.0835 µM) | 0.007 (≈ 0.0234 µM) | 5500 | 61.5
14 | C[C@@H](O)[C@H]1C(=O)N2C(C(=O)O)=C(S[C@@H]3CN[C@H](C(=O)N(C)C)C3)[C@H](C)[C@H]12 [MEROPENEM] | 0.025 (≈ 0.0652 µM) | 0.025 (≈ 0.0652 µM) | 0.025 (≈ 0.0652 µM) | 0.049 (≈ 0.128 µM) | 0.049 (≈ 0.128 µM) | 0.195 (≈ 0.509 µM) | 0.195 (≈ 0.509 µM) | 0.049 (≈ 0.128 µM) | 0.195 (≈ 0.509 µM) | 0.098 (≈ 0.256 µM) | 0.195 (≈ 0.509 µM) | 0.013 (≈ 0.0339 µM) | – | –
